Consider 17 compounds from patent US7348425B2, “Inhibitors of HCV replication” (Bristol-Myers Squibb Company, priority 2004, dated 2008).

Where two headings read alike, the source gives them in different places. A value given as a limit tells only on which side of the number the result lay.

In one assay the test system is HCV replicon. As to the kind of experiment: HCV replicon luciferase assay. In kind it is cell-based, Hepatitis C virus. To be noted: luciferase method, read-out: EC50. In outline:
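Replicon cells, some carrying a Renilla luciferase reporter, were incubated with titrated compound at 37 °C; Alamar blue measured cytotoxicity, followed by a kinetic FRET peptide read (340/490 nm) or Dual-Glo luciferase. Activity was normalized to untreated controls after subtracting background from high-dose protease inhibitor wells; EC50 was the concentration giving 50% signal reduction.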

The target in assay [1] is T1, HCV NS5B RdRp genotype 1b (Hepatitis C virus genotype 1b, UniProt Q9WMX2).
T1 construct: The protein was expressed with an 18 amino acid C-terminal truncation to enhance the solubility; made in house; host or cells: E. coli BL21 (DE3), pET21a
As to the kind of experiment: Standard HCV NS5B RdRp enzyme assay. In kind it is biochemical. To be noted: standard method. The protocol:
HCVNS5B RdRp cloning, expression, and purification. The cDNA encoding the NS5B protein of HCV, genotype 1b, was cloned into the pET21a expression vector. The protein was expressed with an 18 amino acid C-terminal truncation to enhance the solubility. The E. coli competent cell line BL21 (DE3) was used for expression of the protein. Cultures were grown at 37° C. for ˜4 hours until the cultures reached an optical density of 2.0 at 600 nm. The cultures were cooled to 20° C. and induced with 1 mM IPTG. Fresh ampicillin was added to a final concentration of 50 μg/ml and the cells were grown overnight at 20° C.
Cell pellets (3 L) were lysed for purification to yield 15-24 mgs of purified NS5B. The lysis buffer consisted of 20 mM Tris-HCl, pH 7.4, 500 mM NaCl, 0.5% triton X-100, 1 mM DTT, 1 mM EDTA, 20% glycerol, 0.5 mg/ml lysozyme, 10 mM MgCl2, 15 ug/ml deoxyribonuclease I, and Complete TM protease inhibitor tablets (Roche). After addition of the lysis buffer, frozen cell pellets were resuspended using a tissue homogenizer. To reduce the viscosity of the sample, aliquots of the lysate were sonicated on ice using a microtip attached to a Branson sonicator. The sonicated lysate was centrifuged at 100,000×g for 1 hr at 4° C. and filtered through a 0.2 μm filter unit (Corning).
The protein was purified using three sequential chromatography steps: Heparin sepharose CL-6B, polyU sepharose 4B, and Hitrap SP sepharose (Pharmacia). The chromatography buffers were identical to the lysis buffer but contained no lysozyme, deoxyribonuclease I, MgCl2 or protease inhibitor and the NaCl concentration of the buffer was adjusted according to the requirements for charging the protein onto the column. Each column was eluted with a NaCl gradient which varied in length from 5-50 column volumes depending on the column type. After the final chromatography step, the resulting purity of the enzyme is >90% based on SDS-PAGE analysis. The enzyme was aliquoted and stored at −80° C.
Standard HCV NS5B RdRp enzyme assay. HCV RdRp genotype Ib assays were run in a final volume of 60 μl in 96 well plates (Costar 3912). The assay buffer is composed of 20 mM Hepes, pH 7.5, 2.5 mM KCl, 2.5 mM MgCl2, 1 mM DTT, 1.6 U RNAse inhibitor (Promega N2515), 0.1 mg/ml BSA (Promega R3961), and 2% glycerol. All compounds were serially diluted (3-fold) in DMSO and diluted further in water such that the final concentration of DMSO in the assay was 2%. HCV RdRp genotype 1b enzyme was used at a final concentration of 28 nM. A polyA template was used at 6 nM, and a biotinylated oligo-dT12 primer was used at 180 nM final concentration. Template was obtained commercially (Amersham 27-4110). Biotinylated primer was prepared by Sigma Genosys. ^3H-UTP was used at 0.6 μCi (0.29 μM total UTP). Reactions were initiated by the addition of enzyme, incubated at 30° C. for 60 min, and stopped by adding 25 μl of 50 mM EDTA containing SPA beads (4 μg/μl, Amersham RPNQ 0007). Plates were read on a Packard Top Count NXT after >1 hr incubation at room temperature.
The IC50 values for compounds were determined using seven different [I]. IC50 values were calculated from the inhibition using the formula y=A+((B−A)/(1+((C/x)^D))). FRET Assay Preparation. To perform the HCV FRET screening assay, 96-well cell culture plates were used. The FRET peptide (Anaspec, Inc.) (Taliani et al., Anal. Biochem. 240:60-67 (1996), hereby incorporated by reference in its entirety) contains a fluorescence donor, EDANS, near one end of the peptide and an acceptor, DABCYL, near the other end. The fluorescence of the peptide is quenched by […] resonance energy transfer (RET) between the donor and the acceptor, but as the NS3 protease cleaves the peptide the products are released from RET quenching and the fluorescence of the donor becomes apparent. […]

For the next assay, the system named is HCV. To be noted: cited from earlier work.

T1 sequence (Q9WMX2 2420-2992): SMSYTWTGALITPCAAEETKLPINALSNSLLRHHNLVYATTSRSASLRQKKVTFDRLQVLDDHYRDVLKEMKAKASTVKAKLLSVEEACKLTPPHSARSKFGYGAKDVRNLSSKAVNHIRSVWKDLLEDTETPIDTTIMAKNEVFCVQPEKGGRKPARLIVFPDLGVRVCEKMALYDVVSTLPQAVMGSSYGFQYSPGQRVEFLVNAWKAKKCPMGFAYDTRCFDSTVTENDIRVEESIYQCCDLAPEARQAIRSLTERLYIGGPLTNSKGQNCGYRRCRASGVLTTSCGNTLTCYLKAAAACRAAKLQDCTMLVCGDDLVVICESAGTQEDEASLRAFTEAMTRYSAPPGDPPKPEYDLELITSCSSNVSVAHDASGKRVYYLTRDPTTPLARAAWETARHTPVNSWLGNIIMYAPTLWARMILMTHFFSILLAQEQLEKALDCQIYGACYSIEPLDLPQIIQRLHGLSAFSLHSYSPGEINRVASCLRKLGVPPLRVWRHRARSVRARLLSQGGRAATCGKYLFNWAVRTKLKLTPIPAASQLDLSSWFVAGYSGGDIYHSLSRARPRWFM

Turning to `O=C(O)CCCc1nc(C2(NC(=O)c3ccc4c(C5CCCCC5)c5n(c4c3)CC=Cc3ccccc3-5)CCCC2)no1` [Example 23, 3-[1-[[(13-cyclohexyl-7H-indolo[2,1-a][2]benzazepin-10-yl)carbonyl]amino]cyclopentyl]-1,2,4-oxadiazole-5-butanoic acid], the EC50 in the assay on HCV replicon (Hepatitis C virus) was 100 to 1000 nM. For the same compound, the IC50 in assay [1] was over 1000 nM.

As for `O=C(O)c1ccc(-c2nc(C3(NC(=O)c4ccc5c(C6CCCCC6)c6n(c5c4)CC=Cc4ccccc4-6)CCCC3)no2)cc1` [Example 24], the EC50 in the assay with HCV replicon (Hepatitis C virus) was 100 to 1000 nM. The IC50 in assay [1] is over 1000 nM.

For the compound `O=C(O)/C=C/c1ccc(-c2nc(C3(NC(=O)c4ccc5c(C6CCCCC6)c6n(c5c4)CC=Cc4ccccc4-6)CCCC3)no2)cc1` [Example 25], the EC50 with HCV replicon (Hepatitis C virus) was in the range of 100 to 1000 nM. The same compound yielded an IC50 in assay [1] of over 1000 nM.

Take `O=C(O)/C=C/c1cccc(-c2nc(C3(NC(=O)c4ccc5c(C6CCCCC6)c6n(c5c4)CC=Cc4ccccc4-6)CCCC3)no2)c1` [Example 26]: the EC50 with HCV replicon (Hepatitis C virus) was 100 to 1000 nM. For the same compound, in assay [1], the IC50 is over 1000 nM.

`O=C(O)/C=C/c1ccc(NC(=O)C2(NC(=O)c3ccc4c(C5CCCCC5)c5n(c4c3)CCCc3ccccc3-5)CCNCC2)cc1` [Example 29, 2-propenoic acid, 3-[4-[[[4-[[(13-cyclohexyl-6,7-dihydro-5H-indolo[2,1-a][2]benzazepin-10-yl)carbonyl]amino]-4-piperidinyl]carbonyl]amino]phenyl]-, (2E)-]: the EC50 in the assay with HCV replicon (Hepatitis C virus) is under 100 nM. In assay [1], this compound displayed an IC50 of 100 to 1000 nM.

For the compound `COC(=O)/C=C/c1ccc(NC(=O)C2(NC(=O)c3ccc4c(C5CCCCC5)c5n(c4c3)CC(=O)Nc3cccnc3-5)CCCC2)cc1` [drawing 98], in the assay with HCV replicon (Hepatitis C virus), the concentration giving a half-maximal response (EC50) is under 100 nM. In assay [1], this compound registered an IC50 of over 1000 nM.

As to `O=C(O)c1ccc2c(C3CCCCC3)c3n(c2c1)CC(C(=O)N1CCOCC1)Cc1ccccc1-3` (centres unmarked) [drawing 113], the EC50 in the assay with HCV replicon is 100 to 1000 nM. The compound further had a concentration for half-maximal inhibition (IC50) in assay [1] of 100 to 1000 nM.

On to `O=C(O)c1ccc2c(C3CCCCC3)c3n(c2c1)CC(C(=O)N1CCOCC1)Cc1ccccc1-3` (centres unmarked) [drawing 114], for which, in the assay on HCV replicon, the EC50 was 1000 to 10000 nM. For the same compound, the IC50 in assay [1] is over 1000 nM.

In the case of `O=C(O)c1ccc2c(C3CCCCC3)c3n(c2c1)CC(C(=O)N1CCOCC1)Cc1ccccc1-3` (centres unmarked) [drawing 115], the EC50 in the assay with HCV replicon lay in the range of 100 to 1000 nM. In assay [1], this compound registered an IC50 of 100 to 1000 nM.

Regarding `O=C(O)c1ccc2c(C3CCCCC3)c3n(c2c1)CC(C(=O)N1CCCCC1)Cc1ccccc1-3` (centres unmarked) [drawing 116], in the assay with HCV replicon, the EC50 is 100 to 1000 nM. The same compound gave an IC50 in assay [1] of 100 to 1000 nM.

Consider `O=C(O)c1ccc2c(C3CCCCC3)c3n(c2c1)CC(C(=O)N1CCCCC1)Cc1ccccc1-3` (centres unmarked) [drawing 117], for which, in the assay on HCV replicon, the EC50 was in the range of 1000 to 10000 nM. In addition, the IC50 in assay [1] is over 1000 nM.

`O=C(O)c1ccc2c(C3CCCCC3)c3n(c2c1)CC(C(=O)N1CCCCC1)Cc1ccccc1-3` (centres unmarked) [drawing 118]: the EC50 with HCV replicon lay within 100 to 1000 nM. The same compound returned an IC50 in assay [1] of 100 to 1000 nM.

Turning to `O=C(O)c1ccc2c(C3CCCCC3)c3n(c2c1)CC(C(=O)N1CCCC(O)C1)Cc1ccccc1-3` (centres unmarked) [drawing 119], the EC50 with HCV replicon lay within 100 to 1000 nM. The IC50 in assay [1] is 100 to 1000 nM.

Consider `O=C(O)c1ccc2c(C3CCCCC3)c3n(c2c1)CC(C(=O)N1CCCC(O)C1)Cc1ccccc1-3` (centres unmarked) [drawing 120], for which the EC50 with HCV replicon fell in the range of 1000 to 10000 nM. This compound also had an IC50 in assay [1] of over 1000 nM.

Take `O=C(O)c1ccc2c(C3CCCCC3)c3n(c2c1)CC(C(=O)N1CCCC(O)C1)Cc1ccccc1-3` (centres unmarked) [drawing 121]: in the assay with HCV replicon, the EC50 fell in the range of 100 to 1000 nM. The same compound returned a half-maximal inhibitory concentration (IC50) in assay [1] of 100 to 1000 nM.

As for “alpha-interferon and ribavirin [reference compound]”, the “sustained efficacy, share of patients” value in the assay with HCV (HCV patients, combination therapy) is on record as 40%.

Consider pegylated alpha-interferon, for which, in the assay with HCV (compared with unmodified alpha-interferon), the “clinical results as monotherapy” value is on record as “superior to unmodified alpha-interferon”.

For orientation: EC50 means the concentration at which the effect is half-maximal. What is called IC50 is the midpoint of a concentration-inhibition curve. Lower therefore signals greater potency in that assay.
